Data on eight compounds can be found in ChEMBL document CHEMBL1151670, “A new quassinoid from Castela texana” (J Nat Prod, 1996).

≈ marks a conversion by molar mass, not a printed value. Calls of active or inactive are those of the source. No cut-off for these calls is given here.

By IC50 is commonly meant the midpoint of a concentration-inhibition curve.

Series [1] has as its system K562. The series is described as follows: Cytotoxicity against human K562 cells at <=10 ug/ml after 2 to 7 days by neutral red assay. It is filed as functional, cell-based.
Series [2] has as its system KB. The experiment in a line: Cytotoxicity against human KB cells <=10 ug/ml after 2 to 7 days by neutral red assay. It is filed as functional, cell-based.
Series [3] concerns Plasmodium falciparum. The experiment in a line: Antimalarial activity against chloroquine-sensitive Plasmodium falciparum D6 at <=10 ug/ml after 48 hrs as LDH activity by Makler assay. It is filed as functional, organism-based.
The test system of series [4] is BT-549. The experiment in a line: Cytotoxicity against human BT549 cells <=10 ug/ml after 2 to 7 days by neutral red assay. The series is classed as functional, cell-based.
Series [5] deals with SK-OV-3. The series is described as follows: Cytotoxicity against human SKOV3 cells <=10 ug/ml after 2 to 7 days by neutral red assay. The series is classed as functional, cell-based.
In series [6] the test system is Plasmodium falciparum. The series is described as follows: Antimalarial activity against chloroquine-resistant Plasmodium falciparum W2 at <=10 ug/ml after 48 hrs as LDH activity by Makler assay. It is filed as functional, organism-based.
For series [7], the system named is Vero. The series is described as follows: Cytotoxicity against african green monkey Vero cells <=10 ug/ml after 2 to 7 days by neutral red assay. The series is classed as cell-based. Conditions: chlorocebus sabaeus.
The test system of series [8] is Plasmodium falciparum. The experiment in a line: Antimalarial activity against chloroquine-resistant Plasmodium falciparum W2 after 48 hrs as LDH activity by Makler assay. It is filed as functional, organism-based. Conditions: W2, 48 h.
Series [9] relates to Plasmodium falciparum. The experiment in a line: Antimalarial activity against chloroquine-sensitive Plasmodium falciparum D6 after 48 hrs as LDH activity by Makler assay. The conditions noted are these: D6, 48 h. It is filed as functional, organism-based.
The test system of series [10] is SK-OV-3. The experiment in a line: Cytotoxicity against human SKOV3 cells after 2 to 7 days by neutral red assay. The series is classed as functional, cell-based.
Series [11] concerns BT-549. The series is described as follows: Cytotoxicity against human BT549 cells after 2 to 7 days by neutral red assay. It is filed as functional, cell-based.
In series [12] the test system is Vero. The series is described as follows: Cytotoxicity against african green monkey Vero cells after 2 to 7 days by neutral red assay. It is filed as cell-based. The conditions noted are these: chlorocebus sabaeus.
The subject of series [13] is KB. The experiment in a line: Cytotoxicity against human KB cells after 2 to 7 days by neutral red assay. The series is classed as functional, cell-based.
The test system of series [14] is K562. The experiment in a line: Cytotoxicity against human K562 cells after 2 to 7 days by neutral red assay. It is filed as functional, cell-based.
In a further series the test system is Crithidia fasciculata. The experiment in a line: Trypanocidal activity against Crithidia fasciculata ATCC 11745 at <=20 ug/ml after 48 hrs by SRB assay. It is filed as functional, organism-based.
The subject of the next series is Giardia intestinalis. The experiment in a line: Antiparasitic activity against Giardia intestinalis ATCC 30888 at <=20 ug/ml after 24 hrs by XTT assay. The series is classed as functional, organism-based. The conditions noted are these: Giardia duodenalis. Background: Tetrazolium assays rely on reduction of a dye to a coloured formazan, in cell work by metabolically active cells.

`CC1=C[C@H](O)[C@@H](O)[C@]2(C)[C@H]3[C@]4(O)OC[C@]35[C@H]([C@@H](C)[C@H]4O)[C@@H](O[C@@H]3O[C@H](CO)[C@@H](O)[C@H](O)[C@H]3O)C(=O)O[C@@H]5C[C@@H]12`: the outcome in the series with K562 [1], in the series on KB [2], with Plasmodium falciparum [3], in the series on BT-549 [4], in the series on SK-OV-3 [5] and with Plasmodium falciparum [6] was inactive. Moreover, in the series on Vero [7], the Activity entry was “Not Active”.

`CC1=C[C@H](O)[C@@H](O)[C@]2(C)[C@H]3[C@@]4(O)OC[C@@]35[C@@H](C[C@@H]12)OC(=O)C[C@H]5[C@@H](C)[C@H]4O` [CHAPARRIN]: the outcome in the series on K562 [1], with KB [2], in the series on BT-549 [4] and in the series on SK-OV-3 [5] was inactive. For the same compound, the IC50 with Plasmodium falciparum [8] stood at 0.35 µg/mL (≈ 0.92 µM); with Plasmodium falciparum [9] it was 0.25 µg/mL (≈ 0.657 µM). Also, the Activity entry in the series on Vero [7] is listed as “Not Active”.

As to `CC(=O)O[C@H]1C(=O)O[C@@H]2C[C@H]3C(C)=CC(=O)[C@@H](O)[C@]3(C)[C@H]3[C@]4(O)OC[C@]32[C@@H]1[C@@H](C)[C@H]4O` [HOLACANTHONE], the IC50 in the series with Plasmodium falciparum [8] came out at 0.012 µg/mL (≈ 0.0275 µM); in the series on Plasmodium falciparum [9], 0.01 µg/mL (≈ 0.0229 µM); in the series on SK-OV-3 [10], 0.5 µg/mL (≈ 1.15 µM); with BT-549 [11], 0.3 µg/mL (≈ 0.687 µM); with Vero [12], 1 µg/mL (≈ 2.29 µM); with KB [13], 0.5 µg/mL (≈ 1.15 µM). The same compound showed an IC50 in the series on K562 [14] of 1 µg/mL (≈ 2.29 µM).

Regarding `C[C@@H]1C[C@H](O)C(=O)[C@]2(C)[C@H]3[C@H](OC(=O)/C=C/c4ccc(O)cc4)C(=O)[C@H](C)[C@@H]4CC(=O)O[C@H](C[C@@H]12)[C@]34C`, the outcome in the series with K562 [1], in the series with KB [2], with Crithidia fasciculata, in the series with Giardia intestinalis, in the series on BT-549 [4] and in the series with SK-OV-3 [5] was inactive. In addition, the IC50 in the series with Plasmodium falciparum [8] was 0.75 µg/mL (≈ 1.47 µM); in the series on Plasmodium falciparum [9], 0.92 µg/mL (≈ 1.8 µM). The Activity entry in the series with Vero [7] is on record as “Not Active”.

Turning to `CC1=CC(=O)[C@@H](O)[C@]2(C)[C@H]3[C@@]4(O)OC[C@@]35[C@@H](C[C@@H]12)OC(=O)C[C@H]5[C@@H](C)[C@H]4O` [CHAPARRINONE], the IC50 with Plasmodium falciparum [8] is 0.2 µg/mL (≈ 0.529 µM); with Plasmodium falciparum [9] it was 0.25 µg/mL (≈ 0.661 µM); with SK-OV-3 [10] it was 0.5 µg/mL (≈ 1.32 µM); in the series on BT-549 [11], 0.8 µg/mL (≈ 2.11 µM); in the series with Vero [12], 1.5 µg/mL (≈ 3.96 µM); with KB [13] it was 1.2 µg/mL (≈ 3.17 µM). Half-maximal inhibition in the series with K562 [14] (IC50) required 1.8 µg/mL (≈ 4.76 µM).

For `CC1=CC(=O)[C@@H](O)[C@]2(C)[C@H]3[C@]4(O)OC[C@]35[C@H]([C@@H](C)[C@H]4O)[C@@H](O)C(=O)O[C@@H]5C[C@@H]12` [GLAUCARUBOLONE], the IC50 in the series with Plasmodium falciparum [8] turned out to be 0.2 µg/mL (≈ 0.507 µM); in the series with Plasmodium falciparum [9] it was 0.125 µg/mL (≈ 0.317 µM); in the series on SK-OV-3 [10], 0.8 µg/mL (≈ 2.03 µM); in the series with BT-549 [11], 0.4 µg/mL (≈ 1.01 µM); in the series with Vero [12], 1.5 µg/mL (≈ 3.8 µM); with KB [13], 1 µg/mL (≈ 2.54 µM). Besides, in the series on K562 [14], the IC50 came out at 0.6 µg/mL (≈ 1.52 µM).

Regarding `C[C@@H]1C[C@H](O)C(=O)[C@]2(C)[C@H]3[C@H](O)C(=O)[C@H](C)[C@@H]4CC(=O)O[C@H](C[C@@H]12)[C@]34C` [AMAROLIDE], the outcome in the series with K562 [1], with KB [2], in the series on Plasmodium falciparum [3], in the series with BT-549 [4], in the series with SK-OV-3 [5] and in the series with Plasmodium falciparum [6] was inactive. Besides, in the series on Vero [7], the Activity entry is listed as “Not Active”.

For `COc1cccc2c1C(=O)c1c(O)c3c(c(O)c1C2=O)C[C@@](O)(C(=O)CO)C[C@@H]3O[C@H]1C[C@H](N)[C@H](O)[C@H](C)O1` [DOXORUBICIN], the IC50 with SK-OV-3 [10] was 0.01 µg/mL (≈ 0.0184 µM); in the series with BT-549 [11] it was 0.008 µg/mL (≈ 0.0147 µM); in the series with Vero [12] it was 1.5 µg/mL (≈ 2.76 µM); with KB [13] it was 0.12 µg/mL (≈ 0.221 µM); in the series with K562 [14], 0.035 µg/mL (≈ 0.0644 µM).
